Assay results as given in patent publication US20260027116A1, “Methods of Treating Chronic Graft-Versus-Host Disease Following Allogeneic Hematopoietic Stem Cell Transplantation” (Kadmon Corporation, LLC, priority 2022, published 2026).
Counter-ions that a name gives are not always drawn.

What was measured:
[1] = system: cGVHD; settings: in vivo; cited from earlier work
[2] = solubility of belumosudil mesylate; format: physicochemical
Protocol: The tablet film consists of polyvinyl alcohol, polyethylene glycol, talc, titanium dioxide and yellow iron oxide. Each 200 mg tablet is a pale yellow film-coated oblong tablet debossed with “KDM” on one side and “200” on the other side. Tablets are stored at room temperature, 20° C. to 25° C. (68° F. to 77° F.); excursions permitted from 15° C. and 30° C. (59° F. to 86° F.).

SMILES	discontinuation rate because of TEAEs [1] [%]	solubility in DMF [2]	solubility in DMSO [2]	solubility in methanol [2]	solubility in water [2]
C=CC(=O)N1CCC[C@@H](n2nc(-c3ccc(Oc4ccccc4)cc3)c3c(N)ncnc32)C1 [ibrutinib]	43	–	–	–	–
CC(C)NC(=O)COc1cccc(-c2nc(Nc3ccc4[nH]ncc4c3)c3ccccc3n2)c1 [Belumosudil mesylate, 2-{3-[4-(1H-indazol-5-ylamino)-2-quinazolinyl]phenoxy}-N-(propan-2-yl) acetamide methanesulfonate (1:1)]	–	slightly soluble	soluble	slightly soluble	practically insoluble
